These results are taken from the NIST ThermoML archive (doi:10.1016/j.fluid.2014.04.002).

Structures are written as SMILES. ± gives the expanded uncertainty stated by the source.

Assay in the first data set: not given
The conditions noted are these: 313.15 K; 101 kPa; Liquid; Concentric cylinders viscometry.
For orientation: viscosity means the internal friction of a fluid under shear. As for `OCCCO` [propan-1,3-diol], the viscosity is 21.97 ± 0.42 mPa·s.

Staying with this data set, now noted: 313.15 K; 101 kPa; Liquid; Vibrating tube method.
By mass density is commonly meant mass per unit of volume. For the molecule `CCOC(=O)C(C)O` (racemic) [DL-ethyl lactate], the mass density is recorded as 1011.9 ± 0.86 kg/m3.

In the case of `COCCOCCOCCOCCOC` [2,5,8,11,14-pentaoxapentadecane], the mass density was 993.523 ± 0.23 kg/m3.

On to `CC(O)CO` (centres undefined) [1,2-propanediol], for which the mass density turned out to be 1021.35 ± 0.25 kg/m3.

Turning to `C1CCOC1` [tetrahydrofuran], the mass density amounted to 865.82 ± 0.23 kg/m3.

In the case of `OCCCO` [propan-1,3-diol], the mass density is 1040.28 ± 0.92 kg/m3.

Staying with this data set, now noted: 318.15 K; 101 kPa; Liquid; Concentric cylinders viscometry.
In the case of `CCOC(=O)C(C)O` (racemic) [DL-ethyl lactate], the viscosity is recorded as 1.491 ± 0.029 mPa·s.

As to `COCCOCCOCCOCCOC` [2,5,8,11,14-pentaoxapentadecane], the viscosity is recorded as 2.185 ± 0.038 mPa·s.

As to `CC(O)CO` (centres undefined) [1,2-propanediol], the viscosity worked out at 15.73 ± 0.27 mPa·s.

Consider `C1CCOC1` [tetrahydrofuran], for which the viscosity came to 0.4005 ± 0.0082 mPa·s.

`OCCCO` [propan-1,3-diol]: the viscosity is on record as 18.14 ± 0.35 mPa·s.

The same data set, now with this note: 318.15 K; 101 kPa; Liquid; Vibrating tube method.
For the molecule `CCOC(=O)C(C)O` (racemic) [DL-ethyl lactate], the mass density is on record as 1006.36 ± 0.85 kg/m3.

Turning to `COCCOCCOCCOCCOC` [2,5,8,11,14-pentaoxapentadecane], the mass density amounted to 988.892 ± 0.23 kg/m3.

For the molecule `CC(O)CO` (centres undefined) [1,2-propanediol], the mass density is reported as 1017.52 ± 0.24 kg/m3.

For the molecule `C1CCOC1` [tetrahydrofuran], the mass density worked out at 860.213 ± 0.23 kg/m3.

Regarding `OCCCO` [propan-1,3-diol], the mass density is 1037.11 ± 0.91 kg/m3.

Still in this data set, the particulars now being: 323.15 K; 101 kPa; Liquid; Concentric cylinders viscometry.
On to `CCOC(=O)C(C)O` (racemic) [DL-ethyl lactate], for which the viscosity is 1.349 ± 0.026 mPa·s.

On to `COCCOCCOCCOCCOC` [2,5,8,11,14-pentaoxapentadecane], for which the viscosity came out at 2.003 ± 0.035 mPa·s.

For `CC(O)CO` (centres undefined) [1,2-propanediol], the viscosity turned out to be 12.64 ± 0.22 mPa·s.

With `C1CCOC1` [tetrahydrofuran], the viscosity was determined as 0.3636 ± 0.0076 mPa·s.

Take `OCCCO` [propan-1,3-diol]: the viscosity worked out at 15.2 ± 0.29 mPa·s.

Staying with this data set, now noted: 323.15 K; 101 kPa; Liquid; Vibrating tube method.
For the molecule `CCOC(=O)C(C)O` (racemic) [DL-ethyl lactate], the mass density amounted to 1000.79 ± 0.84 kg/m3.

With `COCCOCCOCCOCCOC` [2,5,8,11,14-pentaoxapentadecane], the mass density was 984.262 ± 0.23 kg/m3.

In the case of `CC(O)CO` (centres undefined) [1,2-propanediol], the mass density is 1013.66 ± 0.24 kg/m3.

`C1CCOC1` [tetrahydrofuran]: the mass density stood at 854.558 ± 0.23 kg/m3.

In the case of `OCCCO` [propan-1,3-diol], the mass density came out at 1033.91 ± 0.91 kg/m3.

The nature of another data set: refractive index (Na D-line) (dimensionless). The conditions noted are these: 288.15 K; 101.33 kPa; Liquid; Standard Abbe refractometry.
For orientation: refractive index means a measure of how strongly the sample bends light. Take `CCOC(=O)C(C)O` (racemic) [DL-ethyl lactate]: the refractive index came to 1.41537 ± 0.00051.

In the case of `COCCOCCOCCOCCOC` [2,5,8,11,14-pentaoxapentadecane], the refractive index stood at 1.43553 ± 0.00037.

As to `CC(O)CO` (centres undefined) [1,2-propanediol], the refractive index came out at 1.43437 ± 0.00037.

Take `C1CCOC1` [tetrahydrofuran]: the refractive index is given as 1.41005 ± 0.00037.

Regarding `OCCCO` [propan-1,3-diol], the refractive index was 1.44091 ± 0.00051.

Staying with this data set, now noted: 293.15 K; 101.33 kPa; Liquid; Standard Abbe refractometry.
Take `CCOC(=O)C(C)O` (racemic) [DL-ethyl lactate]: the refractive index turned out to be 1.41307 ± 0.00051.

On to `COCCOCCOCCOCCOC` [2,5,8,11,14-pentaoxapentadecane], for which the refractive index amounted to 1.43338 ± 0.00037.

As to `CC(O)CO` (centres undefined) [1,2-propanediol], the refractive index came out at 1.4327 ± 0.00037.

Consider `C1CCOC1` [tetrahydrofuran], for which the refractive index worked out at 1.40737 ± 0.00037.

In the case of `OCCCO` [propan-1,3-diol], the refractive index is listed as 1.43949 ± 0.00051.

The same data set, now with this note: 298.15 K; 101.33 kPa; Liquid; Standard Abbe refractometry.
Regarding `CCOC(=O)C(C)O` (racemic) [DL-ethyl lactate], the refractive index is on record as 1.41076 ± 0.00051.

Turning to `COCCOCCOCCOCCOC` [2,5,8,11,14-pentaoxapentadecane], the refractive index is given as 1.43123 ± 0.00037.

As to `CC(O)CO` (centres undefined) [1,2-propanediol], the refractive index amounted to 1.43102 ± 0.00037.

With `C1CCOC1` [tetrahydrofuran], the refractive index amounted to 1.40472 ± 0.00037.

As to `OCCCO` [propan-1,3-diol], the refractive index was 1.43808 ± 0.00051.

Staying with this data set, now noted: 303.15 K; 101.33 kPa; Liquid; Standard Abbe refractometry.
Take `CCOC(=O)C(C)O` (racemic) [DL-ethyl lactate]: the refractive index amounted to 1.40843 ± 0.00051.

As to `COCCOCCOCCOCCOC` [2,5,8,11,14-pentaoxapentadecane], the refractive index was 1.42906 ± 0.00037.

With `CC(O)CO` (centres undefined) [1,2-propanediol], the refractive index is recorded as 1.42934 ± 0.00037.

For `C1CCOC1` [tetrahydrofuran], the refractive index came out at 1.40203 ± 0.00037.

For `OCCCO` [propan-1,3-diol], the refractive index worked out at 1.43667 ± 0.00051.

The same data set, now with this note: 308.15 K; 101.33 kPa; Liquid; Standard Abbe refractometry.
`CCOC(=O)C(C)O` (racemic) [DL-ethyl lactate]: the refractive index was found to be 1.4061 ± 0.00051.

With `COCCOCCOCCOCCOC` [2,5,8,11,14-pentaoxapentadecane], the refractive index is 1.42697 ± 0.00037.

For `CC(O)CO` (centres undefined) [1,2-propanediol], the refractive index was determined as 1.42764 ± 0.00037.

As to `C1CCOC1` [tetrahydrofuran], the refractive index was 1.39931 ± 0.00037.

On to `OCCCO` [propan-1,3-diol], for which the refractive index was determined as 1.43526 ± 0.00051.

Still in this data set, the particulars now being: 313.15 K; 101.33 kPa; Liquid; Standard Abbe refractometry.
`CCOC(=O)C(C)O` (racemic) [DL-ethyl lactate]: the refractive index stood at 1.40374 ± 0.00051.

For `COCCOCCOCCOCCOC` [2,5,8,11,14-pentaoxapentadecane], the refractive index came to 1.42447 ± 0.00037.

On to `CC(O)CO` (centres undefined) [1,2-propanediol], for which the refractive index is listed as 1.42591 ± 0.00037.
